Results reported in US4017611A, “Control of insects with 3-hydroxymethacrylic acid methyl ester dimethylthionophosphate” (priority 1970, dated 1977).
Read-outs that look alike come from different tables or passages of the source.

What was measured:
[1] = test system: one day old houseflies (Musca domestica); assay: Ingestion test with one day old houseflies; format: in vivo; conditions: read-out: % flies killed; for mortality at 0.4 ppm: 0.4 ppm in 30% sugar water; for mortality at 0.8 ppm: 0.8 ppm in 30% sugar water; for mortality at 1.5 ppm: 1.5 ppm in 30% sugar water; for mortality at 3 ppm: 3 ppm in 30% sugar water; for mortality at 6 ppm: 6 ppm in 30% sugar water; for mortality at 12 ppm: 12 ppm in 30% sugar water; for mortality at 25 ppm: 25 ppm in 30% sugar water; for mortality at 50 ppm: 50 ppm in 30% sugar water; for mortality at 100 ppm: 100 ppm in 30% sugar water
Method: Dilution series were manufactured with water. As solvent for the test preparations and similarly as a nutrition agent for the flies, 30% sugar water was used which had been coloured with chlorantin light red (as an attractant). The dilutions were tested with one day old houseflies. The 1, 2 and 4 hour controls enabled the speed of action to be determined. By means of the 24 hour control the limit concentration (action strength) could also be determined.

rats = assay: Acute oral toxicity (warm blooded toxicity) in rats; conditions: orally, rats
[2] = as above; conditions: rat, in vivo, po
adult houseflies = assay: Gas action against adult houseflies; format: in vivo, Musca domestica (housefly); conditions: 10 mg active substance, 2 liter glass cylinder
Method: Using a pipette 10 mg of active substance were placed on a watch glass which was then covered with a wire mesh and placed in a 2 liter glass cylinder. Immediately thereafter 30 houseflies were introduced into the container which was then sealed.
A comparative test between compound 1 and PHOSDRIN (Registered Trade Mark) carried out according to this method gave the following mortality periods in minutes for 10%, 50% and 100% kill of the test animals.

Question: With `COC(=O)C=C(C)OP(=O)(OC)OC` [Phosdrin, reference compound] as the molecule, how does the mortality at 0.4 ppm ([1]; 1 hour) read?
Answer: 0%

Question: What about the mortality at 0.4 ppm ([1]; 2 hours) of the same molecule?
Answer: 0%

Question: And the mortality at 0.4 ppm ([1]; 4 hours)?
Answer: 0%

Question: And the mortality at 0.4 ppm ([1]; 24 hours)?
Answer: 0%

Question: What about the mortality at 0.8 ppm ([1]; 1 hour) of the same molecule?
Answer: 0%

Question: And the mortality at 0.8 ppm ([1]; 2 hours)?
Answer: 0%

Question: What about the mortality at 0.8 ppm ([1]; 4 hours) of the same molecule?
Answer: 0%

Question: What about the mortality at 0.8 ppm ([1]; 24 hours) of the same molecule?
Answer: 0%

Question: What about the mortality at 1.5 ppm ([1]; 1 hour) of the same molecule?
Answer: 0%

Question: And the mortality at 1.5 ppm ([1]; 2 hours)?
Answer: 0%

Question: And the mortality at 1.5 ppm ([1]; 4 hours)?
Answer: 0%

Question: And the mortality at 1.5 ppm ([1]; 24 hours)?
Answer: 0%

Question: What about the mortality at 3 ppm ([1]; 1 hour) of the same molecule?
Answer: 0%

Question: And the mortality at 3 ppm ([1]; 2 hours)?
Answer: 0%

Question: And the mortality at 3 ppm ([1]; 4 hours)?
Answer: 0%

Question: And the mortality at 3 ppm ([1]; 24 hours)?
Answer: 20%

Question: And the mortality at 6 ppm ([1]; 1 hour)?
Answer: 0%

Question: What about the mortality at 6 ppm ([1]; 2 hours) of the same molecule?
Answer: 0%

Question: What about the mortality at 6 ppm ([1]; 4 hours) of the same molecule?
Answer: 10%

Question: What about the mortality at 6 ppm ([1]; 24 hours) of the same molecule?
Answer: 80%

Question: What about the mortality at 12 ppm ([1]; 1 hour) of the same molecule?
Answer: 0%

Question: And the mortality at 12 ppm ([1]; 2 hours)?
Answer: 0%

Question: And the mortality at 12 ppm ([1]; 4 hours)?
Answer: 20%

Question: What about the mortality at 12 ppm ([1]; 24 hours) of the same molecule?
Answer: 90%

Question: And the mortality at 25 ppm ([1]; 1 hour)?
Answer: 20%

Question: What about the mortality at 25 ppm ([1]; 2 hours) of the same molecule?
Answer: 40%

Question: And the mortality at 25 ppm ([1]; 4 hours)?
Answer: 60%

Question: And the mortality at 25 ppm ([1]; 24 hours)?
Answer: 100%

Question: What about the mortality at 50 ppm ([1]; 1 hour) of the same molecule?
Answer: 30%

Question: What about the mortality at 50 ppm ([1]; 2 hours) of the same molecule?
Answer: 70%

Question: What about the mortality at 50 ppm ([1]; 4 hours) of the same molecule?
Answer: 80%

Question: And the mortality at 50 ppm ([1]; 24 hours)?
Answer: 100%

Question: What about the mortality at 100 ppm ([1]; 1 hour) of the same molecule?
Answer: 100%

Question: And the mortality at 100 ppm ([1]; 2 hours)?
Answer: 100%

Question: What about the mortality at 100 ppm ([1]; 4 hours) of the same molecule?
Answer: 100%

Question: And the mortality at 100 ppm ([1]; 24 hours)?
Answer: 100%

Question: And the “warm blooded toxicity LD50” value (rats)?
Answer: 3-7 mg/kg body weight

Question: What about the LD50 [2] of the same molecule?
Answer: 3 to 7 mg/kg

Question: And the “Mortality time for 10% of the houseflies” value (adult houseflies; 10% kill)?
Answer: 22 min

Question: What about the “Mortality time for 50% of the houseflies” value (adult houseflies; 50% kill) of the same molecule?
Answer: 25 min

Question: And the “Mortality time for 100% of the houseflies” value (adult houseflies; 100% kill)?
Answer: 30 min
